Assays:
[1] = test system: LTA4 hydrolase; conditions: literature; cited from earlier work
[2] = test system: collagen-induced arthritis model; conditions: J. Med. Chem., 37, 3197-3199 (1994); cited from earlier work
[3] = biological target: T1, LTA4 hydrolase (Cavia porcellus, UniProt P19602); assay: LTA4 hydrolase inhibition (LTB4 formed from LTA4, guinea pig lung enzyme preparation); assay type: biochemical; conditions: Comparison Test
T1 construct: Lungs were excised from a Hartley guinea pig; from tissue; host or cells: Hartley guinea pig lung, 100,000×g supernatant, 40-70% ammonium sulfate fraction, dialyzed
T1 sequence (P19602 1-611): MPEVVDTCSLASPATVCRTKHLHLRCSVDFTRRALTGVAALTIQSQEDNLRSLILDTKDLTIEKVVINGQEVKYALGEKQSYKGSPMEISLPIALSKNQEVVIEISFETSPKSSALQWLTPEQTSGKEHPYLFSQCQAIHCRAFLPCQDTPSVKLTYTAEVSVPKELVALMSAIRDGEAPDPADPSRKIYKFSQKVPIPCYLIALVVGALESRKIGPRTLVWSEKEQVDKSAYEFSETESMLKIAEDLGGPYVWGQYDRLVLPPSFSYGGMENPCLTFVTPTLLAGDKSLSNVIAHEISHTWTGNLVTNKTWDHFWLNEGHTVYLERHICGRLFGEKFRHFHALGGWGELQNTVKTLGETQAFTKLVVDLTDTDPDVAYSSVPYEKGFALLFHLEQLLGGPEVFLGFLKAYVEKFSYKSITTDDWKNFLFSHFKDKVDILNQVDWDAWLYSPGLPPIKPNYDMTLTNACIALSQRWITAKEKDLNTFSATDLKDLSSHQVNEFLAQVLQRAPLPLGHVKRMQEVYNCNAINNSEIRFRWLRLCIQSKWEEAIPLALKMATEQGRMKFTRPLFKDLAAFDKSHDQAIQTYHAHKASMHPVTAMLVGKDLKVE
Protocol: Effects of the present compounds on LTA4 hydrolase were examined according to the method described in the literature.
Lungs were excised from a Hartley guinea pig (body weight: 330 g). The lungs were homogenized in phosphoric acid buffer (50 mM, pH 7.4, containing 1 mM ethylenediaminetetraacetic acid (EDTA) and 1 mM dithiothreitol (DTT) having weight three times that of the lungs under ice-cooling. The homogenate was centrifuged at low speed (800×g) for 20 minutes, centrifuged at high speed (10,000×g) for 20 minutes and ultracentrifuged (100,000×g) for 60 minutes to give a supernatant. The supernatant was brought to 40% saturation by adding a saturated aqueous ammonium sulfate solution (pH 7.0-7.2, containing 1 mM DTT) dropwise under ice-cooling and centrifuged at high speed (10,000×g) for 20 minutes. The resulting supernatant was brought to 70% saturation by adding a saturated aqueous ammonium sulfate solution (pH 7.0-7.2, containing 1 mM DTT) dropwise and centrifuged at high speed (10,000×g) for 20 minutes. The obtained pellet was dissolved in 2 ml of Tris-acetic acid buffer (20 mM, pH 7.8, containing 1 mM DTT) and dialyzed in 2 liters of the solution to give the enzyme preparation.
LTA4 used, which is the substrate, was prepared by hydrolyzing LTA4 methyl ester and dissolved in ethanol.
In order to examine effects of the present compounds on the enzyme preparation, reactions were performed under the following condition using mixed solutions consisting of the composition shown in Table 1.
HEPES buffer 50 mM, pH 7.8
Enzyme preparation 0.4-0.6 mg protein
Aqueous DTT solution 3 mM
The above-mentioned solution (50 μl ) was incubated at 37° C. for one minute. To the reaction mixture was added 100 μl of a mixed liquid of acetonitrile-ethanol-acetic acid (150:50:3, volume ratio) under ice-cooling. The mixture was allowed to stand at -20° C. for 30 minutes and centrifuged at high speed (10,000×g) for five minutes to give a supernatant. An amount of LTB4 produced in the supernatant was measured by high-speed liquid chromatography.
The degree of the inhibitory effect of each test compound on LTA4 hydrolase is expressed by the inhibition rate calculated by the following equation. [formula]
A: amount of LTB4 formed in the absence of the test compound
B: amount of LTB4 formed in the presence of the test compound
Experiments were carried out under the same conditions as those of the above-mentioned "Pharmacological Test".

For `O=C(O)c1cccc(C2CO2)c1` (stereo not shown) [3-oxiranylbenzoic acid], the “inhibitory effect on LTA4 hydrolase (in words)” value [1] is listed as “inhibitory effects on LTA4 hydrolase”.

For `O=C(O)C1(c2ccc3c(c2)OC[C@H](Cc2ccc(-c4ccccc4)cc2)[C@H]3O)CCCC1` [(+)-1-(3S, 4R)-[3-(4-phenylbenzyl)-4-hydroxychroman-7-yl]cyclopentanecarboxylic acid], the “onset of arthritis (in words)” value [2] is listed as “inhibited the onset of arthritis” and the “inhibitory effect on LTA4 hydrolase (in words)” value [1] is listed as “inhibitory effect on LTA4 hydrolase”.

With `CC(C)(C)c1ccc(CSC[C@H](NC(=O)C(CS)Cc2ccccc2)C(=O)O)cc1` (stereo partly shown) [known compound [II], reference compound] the “inhibitory effect on LTA4 hydrolase relative to that of the present compound (No. 2-12)” value ([3]; ratio to compound No. 2-12) was “about 1/100”, the “inhibitory effect on LTA4 hydrolase relative to those of the present compounds” value ([3]; ratio to the present compounds) was “one tenth” and the IC50 ([3]; same conditions as Pharmacological Test, read-out: IC50) was 4.5 µM.

In the case of `CC(CS)C(=O)N[C@@H](CSCc1ccccc1)C(=O)O` (stereo partly shown) [known compound [I], reference compound], the “inhibitory effect on LTA4 hydrolase” value ([3]; even at a concentration of 10^-5 M) is reported as “little inhibitory effect”.

— US6046235A, “Sulfur-containing amino acid derivatives” (Santen Pharmaceutical Co., Ltd., priority 1996, dated 2000)
